Results as given in PubChem BioAssay (NCI).
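Values below derive from 48-hour exposures of cells grown in 96-well plates, with endpoints linearly interpolated between the two concentrations bracketing the appropriate inhibition level. At the TGI there is no net growth.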

Tests used:
Experiment in all cases: NCI tumour cell line growth inhibition, 48 h
786-0 renal = system: 786-0 renal
A498 renal = system: A498 renal
A549 NSCLC = system: A549 NSCLC
ACHN renal = system: ACHN renal
BT-549 breast = system: BT-549 breast
CAKI-1 renal = system: CAKI-1 renal
CCRF-CEM leukemia = system: CCRF-CEM leukemia
COLO 205 colon = system: COLO 205 colon
DU-145 prostate = system: DU-145 prostate
EKVX NSCLC = system: EKVX NSCLC
HCC-2998 colon = system: HCC-2998 colon
HCT-116 colon = system: HCT-116 colon
HCT-15 colon = system: HCT-15 colon
HL-60(TB) leukemia = system: HL-60(TB) leukemia
HOP-62 NSCLC = system: HOP-62 NSCLC
HOP-92 NSCLC = system: HOP-92 NSCLC
HS 578T breast = system: HS 578T breast
HT29 colon = system: HT29 colon
IGROV1 ovarian = system: IGROV1 ovarian
K-562 leukemia = system: K-562 leukemia
KM12 colon = system: KM12 colon
LOX IMVI melanoma = system: LOX IMVI melanoma
M14 melanoma = system: M14 melanoma
MALME-3M melanoma = system: MALME-3M melanoma
MCF7 breast = system: MCF7 breast
MDA-MB-231 breast = system: MDA-MB-231 breast
MDA-MB-435 = system: MDA-MB-435
MDA-N = system: MDA-N
NCI-H23 lung = system: NCI-H23 lung
NCI-H460 lung = system: NCI-H460 lung
NCI-H522 lung = system: NCI-H522 lung
NCI/ADR-RES ovarian = system: NCI/ADR-RES ovarian
OVCAR-3 ovarian = system: OVCAR-3 ovarian
OVCAR-4 ovarian = system: OVCAR-4 ovarian
OVCAR-5 ovarian = system: OVCAR-5 ovarian
PC-3 prostate = system: PC-3 prostate
RXF 393 renal = system: RXF 393 renal
SF-268 CNS = system: SF-268 CNS
SF-295 CNS = system: SF-295 CNS
SF-539 CNS = system: SF-539 CNS
SK-MEL-2 melanoma = system: SK-MEL-2 melanoma
SK-MEL-28 melanoma = system: SK-MEL-28 melanoma
SK-MEL-5 melanoma = system: SK-MEL-5 melanoma
SK-OV-3 ovarian = system: SK-OV-3 ovarian
SN12C renal = system: SN12C renal
SNB-19 CNS = system: SNB-19 CNS
SNB-75 CNS = system: SNB-75 CNS
SR leukemia = system: SR leukemia
SW-620 colon = system: SW-620 colon
T-47D breast = system: T-47D breast
TK-10 renal = system: TK-10 renal
U251 CNS = system: U251 CNS
UACC-257 melanoma = system: UACC-257 melanoma
UACC-62 melanoma = system: UACC-62 melanoma
UO-31 renal = system: UO-31 renal
MOLT-4 leukemia = system: MOLT-4 leukemia
NCI-H226 lung = system: NCI-H226 lung
OVCAR-8 ovarian = system: OVCAR-8 ovarian
RPMI-8226 leukemia = system: RPMI-8226 leukemia

Structure (SMILES): CC1(C)N=C(N)N=C(N)N1c1cccc(Cl)c1
- TGI (786-0 renal): > 100 µM
- TGI (A498 renal): > 100 µM
- TGI (A549 NSCLC): > 100 µM
- TGI (ACHN renal): > 100 µM
- TGI (BT-549 breast): > 100 µM
- TGI (CAKI-1 renal): > 100 µM
- TGI (CCRF-CEM leukemia): > 100 µM
- TGI (COLO 205 colon): > 100 µM
- TGI (DU-145 prostate): > 100 µM
- TGI (EKVX NSCLC): > 100 µM
- TGI (HCC-2998 colon): > 100 µM
- TGI (HCT-116 colon): > 100 µM
- TGI (HCT-15 colon): > 100 µM
- TGI (HL-60(TB) leukemia): > 100 µM
- TGI (HOP-62 NSCLC): > 100 µM
- TGI (HOP-92 NSCLC): > 100 µM
- TGI (HS 578T breast): > 100 µM
- TGI (HT29 colon): > 100 µM
- TGI (IGROV1 ovarian): > 100 µM
- TGI (K-562 leukemia): > 100 µM
- TGI (KM12 colon): > 100 µM
- TGI (LOX IMVI melanoma): > 100 µM
- TGI (M14 melanoma): > 100 µM
- TGI (MALME-3M melanoma): > 100 µM
- TGI (MCF7 breast): > 100 µM
- TGI (MDA-MB-231 breast): > 100 µM
- TGI (MDA-MB-435): > 100 µM
- TGI (MDA-N): > 100 µM
- TGI (NCI-H23 lung): > 100 µM
- TGI (NCI-H460 lung): > 100 µM
- TGI (NCI-H522 lung): > 100 µM
- TGI (NCI/ADR-RES ovarian): > 100 µM
- TGI (OVCAR-3 ovarian): > 100 µM
- TGI (OVCAR-4 ovarian): > 100 µM
- TGI (OVCAR-5 ovarian): > 100 µM
- TGI (PC-3 prostate): > 100 µM
- TGI (RXF 393 renal): > 100 µM
- TGI (SF-268 CNS): > 100 µM
- TGI (SF-295 CNS): > 100 µM
- TGI (SF-539 CNS): > 100 µM
- TGI (SK-MEL-2 melanoma): > 100 µM
- TGI (SK-MEL-28 melanoma): > 100 µM
- TGI (SK-MEL-5 melanoma): > 100 µM
- TGI (SK-OV-3 ovarian): > 100 µM
- TGI (SN12C renal): > 100 µM
- TGI (SNB-19 CNS): > 100 µM
- TGI (SNB-75 CNS): > 100 µM
- TGI (SR leukemia): > 100 µM
- TGI (SW-620 colon): > 100 µM
- TGI (T-47D breast): > 100 µM
- TGI (TK-10 renal): > 100 µM
- TGI (U251 CNS): > 100 µM
- TGI (UACC-257 melanoma): > 100 µM
- TGI (UACC-62 melanoma): > 100 µM
- TGI (UO-31 renal): > 100 µM

Structure (SMILES): CO[P@@]1(=O)O[C@@H](c2ccccc2)[C@H](O)[C@]1(O)c1ccccc1
- TGI (786-0 renal): > 100 µM
- TGI (A498 renal): > 100 µM
- TGI (A549 NSCLC): > 100 µM
- TGI (ACHN renal): > 100 µM
- TGI (BT-549 breast): > 100 µM
- TGI (CAKI-1 renal): > 100 µM
- TGI (CCRF-CEM leukemia): > 100 µM
- TGI (COLO 205 colon): > 100 µM
- TGI (DU-145 prostate): > 100 µM
- TGI (EKVX NSCLC): 60.4 µM
- TGI (HCT-116 colon): > 100 µM
- TGI (HCT-15 colon): > 100 µM
- TGI (HL-60(TB) leukemia): > 100 µM
- TGI (HOP-92 NSCLC): > 100 µM
- TGI (HS 578T breast): > 100 µM
- TGI (HT29 colon): > 100 µM
- TGI (IGROV1 ovarian): > 100 µM
- TGI (K-562 leukemia): > 100 µM
- TGI (KM12 colon): > 100 µM
- TGI (LOX IMVI melanoma): > 100 µM
- TGI (M14 melanoma): > 100 µM
- TGI (MALME-3M melanoma): > 100 µM
- TGI (MCF7 breast): > 100 µM
- TGI (MDA-MB-231 breast): > 100 µM
- TGI (MDA-MB-435): > 100 µM
- TGI (MDA-N): > 100 µM
- TGI (MOLT-4 leukemia): > 100 µM
- TGI (NCI-H226 lung): > 100 µM
- TGI (NCI-H23 lung): > 100 µM
- TGI (NCI-H460 lung): > 100 µM
- TGI (NCI-H522 lung): > 100 µM
- TGI (NCI/ADR-RES ovarian): > 100 µM
- TGI (OVCAR-3 ovarian): > 100 µM
- TGI (OVCAR-4 ovarian): > 100 µM
- TGI (OVCAR-8 ovarian): > 100 µM
- TGI (PC-3 prostate): > 100 µM
- TGI (RPMI-8226 leukemia): > 100 µM
- TGI (RXF 393 renal): > 100 µM
- TGI (SF-268 CNS): > 100 µM
- TGI (SF-295 CNS): > 100 µM
- TGI (SF-539 CNS): > 100 µM
- TGI (SK-MEL-2 melanoma): > 100 µM
- TGI (SK-MEL-28 melanoma): > 100 µM
- TGI (SK-MEL-5 melanoma): > 100 µM
- TGI (SK-OV-3 ovarian): > 100 µM
- TGI (SN12C renal): > 100 µM
- TGI (SNB-19 CNS): > 100 µM
- TGI (SNB-75 CNS): > 100 µM
- TGI (SR leukemia): > 100 µM
- TGI (SW-620 colon): > 100 µM
- TGI (T-47D breast): > 100 µM
- TGI (TK-10 renal): > 100 µM
- TGI (U251 CNS): > 100 µM
- TGI (UACC-257 melanoma): > 100 µM
- TGI (UACC-62 melanoma): > 100 µM
- TGI (UO-31 renal): > 100 µM
